Laboratory results from patent US4740501A (priority 1985, dated 1988).
Like-named read-outs stand apart in the source and are kept apart here.

Legend:
Format in all cases: cell-based
L1210S = test: cells; conditions: read-out: T.C.D.50
L1210 MTX = test: MTX and cisplatin cross-resistance test, 24 hour exposure
L1210DDP = test: cells

Compound | IC50 (L1210S) | resistance of L1210 MTX compared to L1210S (L1210 MTX) | IC50 (L1210 MTX; Mus musculus, L1210 MTX, characterisation of resistant line, read-out: T.C.D.50) | resistance of L1210DDP compared to L1210S (L1210DDP) | IC50 (L1210DDP; read-out: T.C.D.50) | IC50 (L1210S; parental L1210S)
CN(Cc1cnc2nc(N)nc(N)c2n1)c1ccc(C(=O)N[C@@H](CCC(=O)O)C(=O)O)cc1 [MTX, methotrexate, reference compound] | 0.005 µM | 100 times | 0.5 µM | – | – | –
N.N.[Cl][Pt][Cl] [cisplatin, cis-diamminedichloroplatinum (II), reference compound] | – | – | – | 20 fold | 30 µM | 1.5 µM
